This is an account of results in PMC7791840, “The R-enantiomer of ketorolac reduces ovarian cancer tumor burden in vivo” (BMC Cancer, 2021).

Test [1] has as its system SKOV3ip-GFP cells. Description: Two-week intraperitoneal tumor growth model (tumor burden). Type of test: in vivo, mice. Conditions: 1 mg/kg twice daily oral, 14 days, vs placebo. The text has this:
For two-week tumor studies, 1 × 10^6 non-treated SKOV3ip-GFP cells were i.p. injected. All mice started R-ketorolac treatment one day prior to cell injection and continued treatment until conclusion of the study 14 days later. Mice were imaged using a Light Tools imaging system (Synopsys Optical Solutions, Westminster CO) with long pass GFP filters. Three images per mouse were captured to ensure all tumors were counted. Green fluorescent tumors were identified and counted in the peritoneal cavity as single tumors if there was a distinct border of non-fluorescent tissue. Tumor burden of the omentum occurred either as one large tumor or a bundle of tumors and was not included in the final analysis of tumor number. Total tumor counts from the peritoneal cavity were normalized to placebo treated animals within individual experiments. Blood was collected via cardiac puncture and ketorolac enantiomer concentrations were measured by HPLC analysis as described in Supplemental Methods (Additional File 1: Supplemental Methods). […]

Test [2] concerns the target T1, Cdc42 (Homo sapiens, UniProt P60953).
T1 construct: Frozen tumor samples were lysed without thawing; from tissue; host or cells: peritoneal SKOV3ip-GFP xenograft tumours from treated mice
Description: Flow cytometric GTPase effector binding assay in tumor lysates (Cdc42). Type of test: in vivo. Conditions: oral 1 mg/kg twice daily, 2 weeks; vs placebo. On the procedure: (§1) GTPase effector binding assays were carried out according to the protocols described previously. Frozen tumor samples were lysed without thawing with the addition of RIPA lysis buffer with the following modifications (no β-glycerphosphate,1 mM NaF and protease, 1% (v/v) NP-40 (nonyl phenoxypolyethoxylethanol) inhibitors consisting 10 μg/ml each of chymostatin, leupeptin, pepstatin and antipain). Protein concentrations were determined using GLISA quick protein concentration kit and lysates were adjusted to uniform protein concentrations of 0.5 mg/ml. Insoluble debris was removed by centrifugation at 14,000 RPM in a cold microfuge and the supernatants were incubated with GTPase effector coated beads (PAK1-PBD for Cdc42 and Rac1) for 1 h at 4 °C with rotation. Primary antibodies directed against Cdc42 or Rac1 and secondary antibody Alexa 488 were incubated with the beads for 1 h. Fluorescence intensity MCF (mean channel fluorescence) was used to measure the amount of active intracellular GTPase. MCF was measured by flow cytometry (Accuri C6, BD Biosciences). GTPase activity was calculated as (MCFsample group – MCFunstimulated negative control) / MCFstimulated positive control.

In test [3] the target is T2, Rac1 (Homo sapiens, UniProt P63000).
T2 construct: Frozen tumor samples were lysed without thawing; from tissue; host or cells: peritoneal SKOV3ip-GFP xenograft tumours from treated mice
The experiment in a line: Flow cytometric GTPase effector binding assay in tumor lysates (Rac1). Conditions: oral 1 mg/kg twice daily, 2 weeks; vs placebo. Type of test: in vivo. On the procedure:
as §1

Test [4] relates to SKOV3ip-GFP cells. The experiment in a line: Measurement of omental weight. Type of test: in vivo, mice. Conditions: two-week tumor study, 1 mg/kg twice daily; no significant differences between groups. An excerpt:
page 1: SUPPLEMENTAL METHODS Cell Culture and Reagents SKOV3ip cells were modified to express GFP-Rac1 by transfection with pcDNA3-EGFP-Rac1- wt (Catalog # 12980, Addgene) as described for SKOV3ip-GFP cells under Methods. Rac1 overexpression quantification and verification was completed by western blot and qPCR. SKOV3ip-GFP and SKOV3ip-GFP-Rac1 cell populations were further enriched by flow sorting for GFP positive cells. SKOV3ip-GFP-Rac1 cell lines were maintained under the same selection as described for SKOV3ip-GFP cells (Methods). In vivo Drug Dosing Racemic (R-/S-) ketorolac tromethamine salt was purchased from Sigma (St. Louis MO, cat# K1136), S-ketorolac was purchased from Toronto Research Chemicals (Toronto Canada, cat# K235602) and dissolved in water or 100% ethanol, respectively . Mice received twice daily […] mg/kg of body weight. Measurement of Omental Weight Omental tissue was harvested and stored on ice in PBS for no more than 1 hour before analysis. Omenta were blotted dry on lab tissue and weight was measured using an analytical balance (Denver Instruments Company, A -160). There was a non-significant decreasing trend in omental weight for treated mice when compared to placebo mice ( Additional File 3: Table S1). […] Ketorolac was detected using a UV spectrometer set at UV310. […]

The structures appear in SMILES notation. “Also recorded” adds a separate entry of the source. Where a name gives a salt, the structure may show the parent alone.

T1 sequence (P60953 whole entry): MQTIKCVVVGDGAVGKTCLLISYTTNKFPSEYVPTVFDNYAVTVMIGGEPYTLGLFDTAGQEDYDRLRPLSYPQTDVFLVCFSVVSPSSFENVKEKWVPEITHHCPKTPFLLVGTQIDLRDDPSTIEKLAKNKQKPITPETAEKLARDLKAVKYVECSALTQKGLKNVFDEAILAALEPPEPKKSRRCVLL

On to `O=C(c1ccccc1)c1ccc2n1CC[C@H]2C(=O)O` [R-ketorolac], for which, in test [1], the “Tumor burden (tumor implants within the peritoneal cavity)” value is on record as “significantly fewer tumor implants; also recorded: significantly decreased tumor burden”. Moreover, the “Cdc42 GTPase activity in tumor lysates” value in test [2] was “significantly decreased”. Moreover, the “Rac1 GTPase activity in tumor lysates” value in test [3] is reported as “significantly decreased”. In addition, the “Omental weight, Mean ± SD” value in test [4] came to 0.059 ± 0.018 g.
With `O=C(c1ccccc1)c1ccc2n1CCC2C(=O)O` (centres unmarked) [R−/S-ketorolac, ketorolac tromethamine salt], in test [1] (listed as Racemic drug), the “Tumor burden (tumor implants within the peritoneal cavity)” value was “significantly decreased tumor burden”. Further, the “Cdc42 GTPase activity in tumor lysates” value in test [2] is listed as “Inhibition of the target GTPases was evident”. In addition, the “Rac1 GTPase activity in tumor lysates” value in test [3] is listed as “Inhibition of the target GTPases was evident”. Further, the “Omental weight, Mean ± SD” value in test [4] amounted to 0.058 ± 0.026 g.
